According to patent publication US10532085B2, “Methods for increasing intracellular activity of Hsp70” (Orphazyme A/S, priority 2010, dated 2020):

Assays:
U2OS osteosarcoma cells = test: Endocytic uptake of Alexa Fluor-488-labelled BSA (BSA*); assay type: cell-based, Human; details: 20 μg/mL BSA* for 24 h with 3000 nM rHsp70 vs BSA* alone
Procedure: FIG. 4: Hsp70 increases endocytic uptake of other molecules. Panel A: immortalized mouse embryonic fibroblasts (iMEF), either wildtype (WT) or transgenic for Hsp70 (TG) where incubated with 20 μg/mL Alexa Fluor-488-labelled BSA (BSA*) for 24 h. Endocytic uptake was verified by fluorescence microscopy (not shown). Cells where then harvested and analyzed for uptake of BSA*. […] Panel B: U2OS osteosarcoma cells where incubated with 20 μg/mL BSA* for 24 h either with 3000 nM rHsp70 or without as indicated. Endocytic uptake was verified by fluorescence microscopy (not shown). Cells where then harvested and analyzed for uptake of BSA*.

[1] = test system: U-2-OS osteosarcoma cells; test: Uptake and localization of fluorochrome-labeled recombinant protein; assay type: cell-based, Human; details: 300 nM rHsp70-AF488, 24 h
Procedure: FIG. 2: Lysosomal Hsp70 stabilizes lysosomal membranes. (a) Representative confocal images of U-2-OS cells incubated with 300 nM rHsp70-AF488 (green) for 24 h, fixed and stained for lysosomal integral membrane protein-1 (LIMP-1; red). For co-localization with other organelle markers see FIG. 3. (b) U-2-OS cells were incubated with 300 nM rHsp70-AF488 for 24 h before quantification of rHsp70-AF488 in membranes (memb.) and supernatant (sup.) obtained by repeated freeze/thaw cycles and centrifugation the light membrane fraction (LMF). […] (c) Representative still images of U-2-OS cells exposed to photo-oxidation (acridine orange and blue light). The loss of lysosomal integrity is visualized by the loss of red and increase in green staining. (d and e) U-2-OS cells were incubated with indicated recombinant proteins (300 nM) for 24 h, and analyzed for lysosomal integrity upon photo-oxidation. When indicated, cells were treated with indicated siRNAs for 48 h prior to the addition of recombinant proteins (e). The values represent means±SD (standard deviation) for three (d) or five (e) independent experiments. Representative immunoblots of indicated proteins from U-2-OS cells left untreated or treated with control or Hsp70 siRNAs are shown on the right. Scale bars: 20 μm (a and c).
FIG. 3: Colocalization of endocytosed rHsp70-AF488 with lysosomes. […]

**Q.** Which “uptake of BSA*” value (U2OS osteosarcoma cells) does the source give for “rHsp70: recombinant (human) heat shock protein 70; in some tests labelled with Alexa Fluor 488” here?
**A.** The value was “significantly higher uptake of BSA*”.

**Q.** What about the “uptake, co-localization and membrane binding” value [1] of the same substance?
**A.** The value was “effective uptake of rHsp70, its specific co-localization with late endosomal and lysosomal markers and binding to lysosomal membranes”.
